# From US11547678B2, “Aqueous pharmaceutical formulation of tapentadol for oral administration” (GRÜNENTHAL GMBH, priority 2011, dated 2023)
# Columns and labels:
# [1] = Antimicrobial robustness testing of 4 mg/mL oral solution, higher sodium benzoate: USP and Pharm. Eur. requirements (Example 4); assay type: cell-based; conditions: 2.36 mg/mL sodium benzoate (corresponding to 2 mg/mL benzoic acid)
# Experimental: Antimicrobial Robustness Testing of 4 mg/mL Tapentadol Oral Solution (Higher Concentration of Sodium Benzoate)
# Based on the obtained results the test was repeated using a formulation containing a higher preservative concentration of 2.36 mg/mL instead of 1.77 mg/mL sodium benzoate.
# The above study of example 3 was repeated using a formulation of 4 mg/mL tapentadol and 2.36 mg/mL sodium benzoate (corresponding to 2 mg/mL benzoic acid). The antimicrobial activity of the formulation was determined with 100% at target pH of 4 and with 80% of sodium benzoate at the pH limits of 3.5 and 4.5. The following compositions of the formulation were used for the antimicrobial robustness testing (Table 4).
# mold (Aspergillus niger) = test: Initial studies: activity against mold; assay type: cell-based; conditions: 10 mg/mL free base
# Excerpt: (§1) The activity against mold (Aspergillus niger) is lower but still within the limits of the requirements of the Pharm. Eur. The activity of tapentadol hydrochloride against Aspergillus niger has been evaluated at lower drug concentrations and at pH 4.0 and 5.0 in formulations containing citric acid as buffer system and hydrochloric acid and sodium hydroxide to adjust the pH.
# [2] = Chemical stability of 4 and 20 mg/mL oral solution (Example 7); assay type: physicochemical; conditions: 3 months storage
# Experimental: Chemical Stability of 4 and 20 mg/mL Tapentadol Oral Solution
# To investigate the chemical stability of tapentadol oral solutions in different concentrations (4 and 20 mg/mL), stability studies were performed over 3 months evaluating the following parameters appearance, assay of tapentadol, degradation, assay preservative (only for the 4 mg/mL formulation) and pH at 25° C./60% RH, 40° C./75% RH and 50° C. In addition, for the 4 mg/mL solution 2 weeks cycling studies (from −15° C. to 30° C. as well as from 5° C. to 40° C.) were performed.
# yeast = test: Initial studies: activity against yeast; assay type: cell-based; conditions: 10 mg/mL free base
# [3] = Antimicrobial robustness testing of 4 mg/mL oral solution, lower sodium benzoate: USP and Pharm. Eur. requirements (Example 3); assay type: cell-based; conditions: 4 mg/mL solution
# Experimental: Antimicrobial Robustness Testing of 4 mg/mL Tapentadol Oral Solution (Lower Concentration of Sodium Benzoate)
# The 4 mg/mL solution of tapentadol has also been subjected to an antimicrobial robustness testing. […] Therefore, sodium benzoate has been used as a preservative in the formulation. The antimicrobial activity of the formulation was determined with 100% at target pH of 4 and with 80% of sodium benzoate at the pH limits of 3.5 and 4.5. The following compositions of the formulation were used for the antimicrobial robustness testing (Table 3).
# Aspergillus niger = test: Activity against Aspergillus niger at lower drug concentrations, pH 4.0 and 5.0 (Example 1); assay type: cell-based
# Excerpt: Determination of Antimicrobial Effective Concentration of Tapentadol Hydrochloride
# as §1
# The requirements of Pharm. Eur. for oral solutions (log reduction of 1 after 14 and no increase after 28 days concerning mold A. niger) are met at pH 4 for tapentadol concentrations of equal or above 8 mg/mL and at pH 5 for concentrations equal or above to 4 mg/m L.
# [4] = Initial studies: antimicrobial activity of tapentadol hydrochloride; assay type: cell-based; conditions: 10 mg/mL free base
# Excerpt: as §1
SMILES,antimicrobial efficacy for a 4 mg/mL tapentadol hydrochloride oral solution [1],activity against mold (Aspergillus niger) (mold (Aspergillus niger)),stability of the API in solution [2],activity against yeast (yeast),antimicrobial effect of the drug substance [3],antimicrobial activity at pH 5 compared with pH 4 (Aspergillus niger; after 14 and 28 days),concentration limit for antimicrobial effectiveness of tapentadol (Aspergillus niger; depending on the pH (4 to 5)) [mg/mL],"tapentadol concentration at which requirements of Pharm. Eur. for oral solutions concerning mold A. niger are met (Aspergillus niger; pH 5, log reduction of 1 after 14 and no increase after 28 days) [mg/mL]",antimicrobial activity [4]
O=C([O-])c1ccccc1.[Na+] [sodium benzoate],sufficient,–,–,–,–,–,–,–,–
"CC[C@@H](c1cccc(O)c1)[C@@H](C)CN(C)C.Cl [tapentadol hydrochloride, (1R,2R)-3-(3-dimethylamino-1-ethyl-2-methyl-propyl)-phenol hydrochloride]",–,lower but still within the limits of the requirements of the Pharm. Eur.,good stability,high,not sufficiently pronounced,better antimicrobial activity,4 to 8,≥ 4,high
